Values of other authors in patent US8277782B2, “Topical oral care compositions comprising host response modulating agents” (The Procter & Gamble Company, priority 2000, dated 2012).

System: alveolar bone
Conditions: non steroidal anti-inflammatory drugs, cyclo-oxygenase inhibitors; prior knowledge

Row | SMILES | resorption of alveolar bone
1 | CC(C(=O)O)c1ccc(-c2ccccc2)c(F)c1 (centres unmarked) [flurbiprofen] | markedly reduce
2 | COc1ccc2c(c1)c(CC(=O)O)c(C)n2C(=O)c1ccc(Cl)cc1 [indomethacin] | markedly reduce
